Where two headings read alike, the source gives them in different places.
Columns and labels:
Assay type in all cases: cell-based
[1] = system: A549 (human lung cancer cells)
Experimental: (§1) MCF-7, HT-29, A549 and HepG2 cells are got from American Tissue Culture Collection, which are cultured with the culture medium containing 10% bovine fetal serum in a CO2-containing incubator at 37° C. MTT method is used to detect cell proliferation and growth inhibition. The number of experimental cells is adjusted to obtain the absorbance at 570 nm. 6 concentrations are set for the compound test solution (0.1 nmol/L˜10 μmol/L). The cells are treated for 72 hours. At least 3 parallel experiments and 3 repeated experiments are conducted for each concentration. The IC50 value is determined by statistical analysis.
(§2) Taking cisplatin as the contrast, the in vitro growth inhibitory activity of Compound 1 and Compound 2 on tumor cells are tested, including MCF7 (human breast cancer cells), HT-29 (human colon cancer cells), A549 (human lung cancer cells) and HepG2 (liver cancer cells).

[2] = system: HepG2 (liver cancer cells)
Experimental: as §1, §2

[3] = system: HT-29 (human colon cancer cells)
Experimental: as §1, §2

[4] = system: MCF7 (human breast cancer cells)
Experimental: as §1, §2

[5] = A549 cells, MTT, 72 hours treatment
[6] = HepG2 cells, MTT, 72 hours treatment
[7] = HT-29 cells, MTT, 72 hours treatment
[8] = MCF7 cells, MTT, 72 hours treatment

tri-n-butyltin (IV) (3-Trifluoromethyl Phenyl) acetylenyl phosphonic acid derivatives [Compound 2]
IC50 [1]: 274 nM
IC50 [2]: 872 nM
IC50 [3]: 962 nM
IC50 [4]: 1730 nM

N.N.[Cl][Pt][Cl] [Cisplatin, cisplatin, reference compound]
IC50 [1, 5]: 1300 nM
IC50 [2, 6]: 17000 nM
IC50 [3, 7]: 35000 nM
IC50 [4, 8]: 43000 nM

Tri-n-butyltin (IV) (3,5-dimethylphenyl) Acetylenyl Phosphonic Acid Derivatives [Compound 1]
IC50 [1, 5]: 33 nM
IC50 [2, 6]: 211 nM
IC50 [3, 7]: 635 nM
IC50 [4, 8]: 194 nM

Source: patent publication US11787826B2, “Hydrocarbyl tin complex of alkynyl phosphonic acid with antitumor activity and application thereof” (priority 2020, dated 2023)
